Measured values reported in patent publication US20080051416A1, “Novel Compounds” (SMITHKLINE BEECHAM CORPORATION, priority 2004, published 2008).

Key:
Recombinant human p38α = molecular target: T1, Recombinant human p38α (Homo sapiens, UniProt Q16539); assay: HTRF Assay: Time-Resolved Fluorescence Resonance Energy Transfer Kinase Assay; assay type: biochemical; settings: TR-FRET; MKK6-activated p38α 100 pM, biotinylated-GST-ATF2 substrate
T1 construct: His; made in house
Method: Time-Resolved Fluorescence Resonance Energy Transfer Kinase Assay
Recombinant human p38α was expressed as a His-tagged protein. To activate this protein, 3 μM unactivated p38α was incubated in 200 mM Hepes pH7.4, 625 mM NaCl, 1 mM DTT with 27 nM active MKK6 (Upstate), 1 mM ATP and 10 mM MgCl2. The activity of the MKK6-activated p38α was assessed using a time-resolved fluorescence resonance energy transfer (TR-FRET) assay.
Biotinylated-GST-ATF2 (residues 19-96, 400 nM final), ATP ([…] final) and MgCl2 (5 mM final) in assay buffer (40 mM HEPES pH 7.4, 1 mM DTT) were added to wells containing […] of various concentrations of compound or DMSO vehicle (3% final) in NUNC 384 well black plate. The reaction was initiated by the addition of MKK6-activated p38 (100 pM final) to give a total volume of 30 μl. Alternatively, various concentrations of compound were incubated with activated p38 for up to 90 min, followed by initiation with the addition of ATF2, ATP and MgCl2. The reaction was incubated for 120 minutes at room temperature, then terminated by the addition of 15 μl of 100 mM EDTA pH 7.4. Detection reagent (15 μl) in buffer (100 mM HEPES pH 7.4, 150 mM NaCl, 0.1% w/v BSA, 1 mM DTT) containing antiphosphothreonine-ATF2-71 polyclonal antibody (Cell Signalling Technology, Beverly Mass., USA) labelled with W-1024 europium chelate (Wallac OY, Turku, Finland), and APC-labelled streptavidin (Prozyme, San Leandro, Calif., USA) was added and the reaction was further incubated for 60 minutes at room temperature. The degree of phosphorylation of GST-ATF2 was measured using a Packard Discovery plate reader (Perkin-Elmer Life Sciences, Pangbourne, UK) as a ratio of specific 665 nm energy transfer signal to reference europium 620 nm signal. Differences in IC50 with or without preincubation of enzyme with compound was interpreted as time-dependence.

p38 = p38 (Homo sapiens, UniProt Q16539); assay: Fluorescence Anisotropy Kinase Binding Assay; settings: p38 enzyme 12 nM, fluorescent ligand 5 nM
Method: Fluorescence Anisotropy Kinase Binding Assay
The concentration of kinase enzyme should preferably be ≧1×Kf. The concentration of fluorescent ligand required will depend on the instrumentation used, and the fluorescent and physicochemical properties. The concentration used must be lower than the concentration of kinase enzyme, and preferably less than half the kinase enzyme concentration. A typical protocol is:
All components dissolved in Buffer of final composition 62.5 mM HEPES, pH 7.5, 1.25 mM CHAPS, 1.25 mM DTT, 12.5 mM MgCl2 3.3% DMSO.
p38 Enzyme concentration: 12 nM
Fluorescent ligand concentration: 5 nM
Test compound concentration: 0.1 nM-100 uM
Components incubated in 30 ul final volume in NUNC 384 well black microtitre plate until equilibrium reached (5-30 mins)
Fluorescence anisotropy read in LJL Acquest.
Definitions: Ki=dissociation constant for inhibitor binding
• Kf=dissociation constant for fluorescent ligand binding
The fluorescent ligand is the following compound: [drawing 22] which is derived from 5-[2-(4-aminomethylphenyl)-5-pyridin-4-yl-1H-imidazol-4-yl]-2-chlorophenol and rhodamine green. Results

[1] = test system: TGF-β-induced increases in fibronectin and thrombospondin; settings: literature, Laping et al., 2002; cited from earlier work

T1 sequence (Q16539 whole entry): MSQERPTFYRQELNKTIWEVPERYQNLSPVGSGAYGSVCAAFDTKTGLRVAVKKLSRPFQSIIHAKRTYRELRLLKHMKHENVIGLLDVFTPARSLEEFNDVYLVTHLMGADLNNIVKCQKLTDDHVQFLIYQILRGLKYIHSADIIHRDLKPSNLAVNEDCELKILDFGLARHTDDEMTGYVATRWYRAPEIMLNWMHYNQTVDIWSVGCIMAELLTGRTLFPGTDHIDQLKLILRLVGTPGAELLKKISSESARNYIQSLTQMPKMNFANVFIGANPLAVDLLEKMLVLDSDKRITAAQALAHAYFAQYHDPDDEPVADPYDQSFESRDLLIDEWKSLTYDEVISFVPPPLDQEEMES
Chain of p38 (Q16539 whole entry): as above

| melting point | IC50 (Recombinant human p38α) [nM] | IC50 (p38) [nM] | Structure (SMILES) | inhibition of TGF-β-induced increases in fibronectin and thrombospondin [1] |
| --- | --- | --- | --- | --- |
| 159 to 164 °C | – | – | Cc1c(F)cc(C(=O)NCCC(C)C)cc1-c1ccc(C(=O)NCC(C)(C)C)cc1C(=O)Nc1nccs1 [Example 16, N^4-(2,2-dimethylpropyl)-5′-fluoro-6′-methyl-N^3′-(3-methylbutyl)-N^2-1,3-thiazol-2-yl-2,3′,4-biphenyltricarboxamide] | – |
| 234 to 239 °C | > 1580 | > 1580 | Cc1c(F)cc(C(=O)N[C@@H](C)C(C)C)cc1-c1ccc(C(=O)NCC(C)(C)C)cc1C(=O)Nc1nccs1 [Example 12, N^3′-[(1S)-1,2-dimethylpropyl]-N^4-(2,2-dimethylpropyl)-5′-fluoro-6′-methyl-N^2-1,3-thiazol-2-yl-2,3′,4-biphenyltricarboxamide] | – |
| > 194 °C (dec.) | – | – | Cc1c(F)cc(C(=O)NCC(C)C)cc1-c1ccc(C(=O)NCC(C)(C)C)cc1C(=O)Nc1nccs1 [Example 14, N^4-(2,2-dimethylpropyl)-5′-fluoro-6′-methyl-N^3′-(2-methylpropyl)-N^2-1,3-thiazol-2-yl-2,3′,4-biphenyltricarboxamide] | – |
| > 125 °C (dec.) | > 1580 | > 1580 | Cc1c(F)cc(C(=O)N[C@H](C)C(C)(C)C)cc1-c1ccc(C(=O)NCC(C)(C)C)cc1C(=O)Nc1nccs1 [Example 10, N^4-(2,2-dimethylpropyl)-5′-fluoro-6′-methyl-N^2-1,3-thiazol-2-yl-N^3′-[(1R)-1,2,2-trimethylpropyl]-2,3′,4-biphenyltricarboxamide] | – |
| 160 to 165 °C | > 1580 | > 1580 | Cc1c(F)cc(C(=O)N[C@@H](C)C(C)(C)C)cc1-c1ccc(C(=O)NCC(C)(C)C)cc1C(=O)Nc1nccs1 [Example 25, N^4-(2,2-dimethylpropyl)-5′-fluoro-6′-methyl-N^2-1,3-thiazol-2-yl-N^3′-[(1S)-1,2,2-trimethylpropyl]-2,3′,4-biphenyltricarboxamide] | – |
| – | > 25100 | > 15800 | Cc1ccc(C(=O)NCCO)cc1-c1ccc(C(=O)NCC(C)(C)C)cc1C(=O)O [Example 86, 4-{[(2,2-dimethylpropyl)amino]carbonyl}-5′-{[(2-hydroxyethyl)amino]carbonyl}-2′-methyl-2-biphenylcarboxylic acid] | – |
| – | – | > 15800 | COC(=O)c1cc(C(=O)NCC(C)(C)C)ccc1-c1cc(C(=O)NCCO)ccc1C [Example 78, methyl 4-{[(2,2-dimethylpropyl)amino]carbonyl}-5′-{[(2-hydroxyethyl)amino]carbonyl}-2′-methyl-2-biphenylcarboxylate] | – |
| 179 to 183 °C | – | – | Cc1c(F)cc(C(=O)NCC2CC2)cc1-c1ccc(C(=O)NCC(C)(C)C)cc1C(=O)Nc1nccs1 [Example 15, N^3′-(cyclopropylmethyl)-N^4-(2,2-dimethylpropyl)-5′-fluoro-6′-methyl-N^2-1,3-thiazol-2-yl-2,3′,4-biphenyltricarboxamide] | – |
| 240 to 244 °C | > 1580 | > 1580 | Cc1c(F)cc(C(=O)N[C@H](C)C(C)C)cc1-c1ccc(C(=O)NCC(C)(C)C)cc1C(=O)Nc1nccs1 [Example 13, N^3′-[(1R)-1,2-dimethylpropyl]-N4-(2,2-dimethylpropyl)-5′-fluoro-6′-methyl-N^2-1,3-thiazol-2-yl-2,3′,4-biphenyltricarboxamide] | – |
| – | – | – | COc1nccc(-c2c(-c3ccc(F)cc3)ncn2C2CCNCC2)n1 [SB-242235] | inhibited |
| – | > 1580 | > 15800 | Cc1c(F)cc(C(=O)N[C@H](C)CO)cc1-c1ccc(C(=O)NCC(C)(C)C)cc1C(N)=O [Example 75, N^4-(2,2-dimethylpropyl)-5′-fluoro-N^3′-[(1R)-2-hydroxy-1-methylethyl]-6′-methyl-2,3′,4-biphenyltricarboxamide] | – |
